Each compound was assayed on CCRF-CEM cancer cells - leukaemia (assay: Fluorometric Microculture Cytotoxicity Assay (FMCA), CCRF-CEM). Settings: Homo sapiens, 72 h incubation.
Assay type: cell-based
Description: The Fluorometric Microculture Cytotoxicity Assay, FMCA, is a three day non-clonogenic microplate-based cell viability assay used for measurement of the cytotoxic and/or cytostatic effect of compounds in vitro (Lindhagen, E., et al. Nat Protoc, 2008. 3(8): p. 1364-9). FMCA (Larsson, R. and P. Nygren, Anticancer Res, 1989. 9(4): p. 1111-9) represents a valuable method to measure cytotoxicity in a number of cell types, both cell lines and primary cells from patients (Larsson, R., et al., Int J Cancer, 1992. 50(2): p. 177-85; Fridborg, H., et al., Eur J Cancer, 1999. 35(3): p. 424-32; Dhar, S., et al., Br J Cancer, 1996. 74(6): p. 888-96).
FMCA is based on the principle that fluorescein diacetate (FDA) is converted to the fluorescent probe fluorescein by esterases in the plasma membranes of living cells. For experiments, 96 or 384-well microplates are prepared with compounds and stored at −70° C. until use. Cells are then seeded into the drug-prepared plates and placed in an incubator for 72 h. On the last day of incubation, the plates are washed and a buffer containing FDA is added and incubated with the cells for 45 minutes. Finally the fluorescence per well is measured in a fluorometer and a Survival Index % (SI) for each compound-treated well is calculated with the equation: Compound-treated cells minus blank divided by control cells minus blank. A high SI-value indicates a large percentage of living cells and vice versa.
In subsequent experiments, compounds were tested, along with kinase inhibitors (dasatinib, pazopanib, sorafenib, and sunitinib) as described above. Initially, the acute lymphoblastic leukaemia cell line CCRF-CEM (see e.g. Foley G E, et al. Cancer 1965, 18, 522-529) was used throughout. In the assay plates, medium was added to six empty wells (blank wells) and wells were filled with PBS and cell suspension and served as control wells. SI-values were then calculated for each compound-treated well as described above. All experiments were conducted twice and a new batch of plates was prepared for each experiment.
For dose-response experiments, 384-well plates were prepared as follows:
Compounds of the invention as well as kinase inhibitors sorafenib, sunitinib, dasatinib, and pazopanib (reference compounds) were diluted with PBS to a concentration which was ten-times higher than the desired starting concentration. Then, a Biomek 2000 liquid handling system was employed to serially dilute the compounds in a deep-well 384-well plate. From this plate, assay plates containing 5 μl compound per well were prepared with the Biomek 2000. Certain compounds precipitated when diluted with PBS, and these compounds were therefore prepared in a 96-well plate manually as described above using culture medium RPMI 1640 instead of PBS.
The compounds were also tested at five concentrations, with five times serial dilution on the following cell types: CCRF-CEM, hTERT-RPE1 (normal retinal epithelial cells), hRPTEpiC (normal renal cells) and PBMC (peripheral blood mononuclear cells). Each experiment was performed three times, except for PBMC and hRPTEpiC, which were performed twice. SI-values were calculated, graphs were plotted using GraphPadPrism 5.0 (GraphPad Software Inc. La Jolla, Calif.) and EC50-values for each cell type and compound were determined from the curves.

`COCCOc1ccc2[nH]cc(CCNc3nccc(NCc4ccc5[nH]ccc5c4)n3)c2c1` [Example 74, N^4-(1H-indol-5-ylmethyl)-N^2-{2-[5-(2-methoxyethoxy)-1H-indol-3-yl]ethyl}pyrimidine-2,4-diamine] and `COc1ccc2[nH]cc(CCNc3ccnc(NCc4ccc5[nH]ccc5c4)n3)c2c1` [Example 28, N^2-(1H-indol-5-ylmethyl)-N^4-[2-(5-methoxy-1H-indol-3-yl)ethyl]pyrimidine-2,4-diamine] cannot be ordered by EC50: < 10 µM for the first, 3.1 µM for the second.

`Oc1ccc2[nH]cc(CCNc3nccc(NCc4ccc5[nH]ccc5c4)n3)c2c1` [Example 10, 3-{2-[4-(1H-indol-5-ylmethylamino)-pyrimidin-2-ylamino]ethyl}-1H-indol-5-ol] and `Oc1ccc2[nH]cc(CCNc3ccnc(NCc4ccc5[nH]ccc5c4)n3)c2c1` [Example 26, 3-{2-[2-(1H-indol-5-ylmethylamino)-pyrimidin-4-ylamino]ethyl}-1H-indol-5-ol] are within 1.5-fold of each other in EC50: 10.2 µM for the first, 7.01 µM for the second.

`Nc1cnc(Nc2cccc3[nH]ccc23)nc1NCc1ccc2[nH]ccc2c1` [Example 38, N^4-(1H-indol-5-ylmethyl)-N^2-(1H-indol-4-yl)pyrimidine-2,4,5-triamine] and `Nc1cnc(Nc2ccc3cc[nH]c3c2)nc1NCc1ccc2[nH]ccc2c1` [Example 40, N^4-(1H-indol-5-ylmethyl)-N^2-(1H-indol-6-yl)pyrimidine-2,4,5-triamine] are within 1.5-fold of each other in EC50: 4.33 µM for the first, 4.17 µM for the second.

`COc1ccc2[nH]cc(CCNc3nccc(NCc4ccc5[nH]cnc5c4)n3)c2c1` [Example 69, N^4-(1H-benzo[d]imidazol-5-ylmethyl)-N^2-[2-(5-methoxy-1H-indol-3-yl)ethyl]pyrimidine-2,4-diamine] and `COc1ccc2[nH]cc(CCNc3nccc(NCc4ccc5cc[nH]c5c4)n3)c2c1` [Example 71, N^4-(1H-indol-6-ylmethyl)-N^2-[2-(5-methoxy-1H-indol-3-yl)ethyl]pyrimidine-2,4-diamine] cannot be ordered by EC50: < 10 µM for the first, < 10 µM for the second.

Going from `Cc1ccc2[nH]cc(CCNc3nccc(NCc4ccc5[nH]ccc5c4)n3)c2c1` [Example 11, N^4-(1H-indol-5-ylmethyl)-N^2-[2-(5-methyl-1H-indol-3-yl)ethyl]pyrimidine-2,4-diamine] to `c1ccc2c(CCNc3nccc(NCc4ccc5[nH]ccc5c4)n3)c[nH]c2c1` [Example 9, N^2-[2-(1H-indol-3-yl)ethyl]-N^4-(1H-indol-5-ylmethyl)pyrimidine-2,4-diamine], the EC50 rises from 2.88 µM to 8.73 µM (3-fold). The first is the more potent here.

`Cc1cc2cc(CNc3ccnc(Nc4cccc5[nH]ccc45)n3)ccc2[nH]1` [Example 13, N^2-(1H-indol-4-yl)-N^4-(2-methyl-1H-indol-5-ylmethyl)pyrimidine-2,4-diamine] and `c1cc(Nc2nccc(NCc3ccc4[nH]ncc4c3)n2)c2cc[nH]c2c1` [Example 18, N^2-(1H-indol-4-yl)-N^4-(1H-indazol-5-ylmethyl)pyrimidine-2,4-diamine] are within 1.5-fold of each other in EC50: 0.55 µM for the first, 0.71 µM for the second.

First: c1ccc2c(CCNc3ccnc(NCc4ccc5[nH]ccc5c4)n3)c[nH]c2c1 [Example 25, N^4-[2-(1H-indol-3-yl)ethyl]-N^2-(1H-indol-5-ylmethyl)pyrimidine-2,4-diamine]
Second: Cc1cc2cc(CNc3ccnc(NCCc4c[nH]c5ccccc45)n3)ccc2[nH]1 [Example 17, N^2-(2-(1H-indol-3-yl)-ethyl)-N^4-(2-methyl-1H-indol-5-ylmethyl)pyrimidine-2,4-diamine]
The EC50 of the first is 2.3-fold lower: 3.16 µM for the first, 7.28 µM for the second.

`Cc1nc(Nc2ncc(C(=O)Nc3c(C)cccc3Cl)s2)cc(N2CCN(CCO)CC2)n1` [Ref. 3, dasatinib, reference compound] and `c1cc(NCc2ccc3[nH]ccc3c2)nc(NCCc2c[nH]c3ccc(OCCN4CCOCC4)cc23)n1` [Example 73, N^4-(1H-indol-5-ylmethyl)-N^2-{2-[5-(2-morpholinoethoxy)-1H-indol-3-yl]ethyl}pyrimidine-2,4-diamine] cannot be ordered by EC50: 9.7 µM for the first, < 10 µM for the second.

Going from `Nc1cnc(Nc2ccc3[nH]ccc3c2)nc1NCc1ccc2[nH]ccc2c1` [Example 39, N^4-(1H-indol-5-ylmethyl)-N^2-(1H-indol-5-yl)pyrimidine-2,4,5-triamine] to `c1cc(NCc2ccc3[nH]ccc3c2)nc(Nc2ccc3[nH]ccc3c2)n1` [Example 2, N^4-(1H-indol-5-ylmethyl)-N^2-(1H-indol-5-yl)pyrimidine-2,4-diamine], the EC50 rises from 2.84 µM to 4.83 µM (1.7-fold). The first is the more potent here.

Compared with `c1cc(Nc2nccc(NCc3ccc4cc[nH]c4c3)n2)c2cc[nH]c2c1` [Example 20, N^4-(1H-indol-6-ylmethyl)-N^2-(1H-indol-4-yl)pyrimidine-2,4-diamine], `c1cc(Nc2ccnc(NCc3ccc4[nH]ccc4c3)n2)c2cc[nH]c2c1` [Example 23, N^2-(1H-indol-5-ylmethyl)-N^4-(1H-indol-4-yl)pyrimidine-2,4-diamine] is 1.6-fold higher in EC50: 1.01 µM for the first, 1.62 µM for the second. The first is the more potent here.

`Cc1cc2cc(Nc3nccc(NCc4ccc5[nH]ccc5c4)n3)ccc2[nH]1` [Example 3, N^4-(1H-indol-5-ylmethyl)-N^2-(2-methyl-1H-indol-5-yl)pyrimidine-2,4-diamine] and `Cc1cc2cc(Nc3ccnc(NCc4ccc5cc[nH]c5c4)n3)ccc2[nH]1` [Example 70, N^2-(1H-indol-6-ylmethyl)-N^4-(2-methyl-1H-indol-5-yl)pyrimidine-2,4-diamine] cannot be ordered by EC50: 4.25 µM for the first, < 10 µM for the second.

`Cc1cc(Nc2ccc3[nH]c(C)cc3c2)nc(NCc2ccc3[nH]ccc3c2)n1` [Example 83, N^2-(1H-indol-5-ylmethyl)-6-methyl-N^4-(2-methyl-1H-indol-5-yl)pyrimidine-2,4-diamine] and `Cc1cc2cc(CNc3nccc(Nc4ccc5[nH]c(C)cc5c4)n3)ccc2[nH]1` [Example 63, N^4-(2-methyl-1H-indol-5-yl)-N^2-(2-methyl-1H-indol-5-ylmethyl)pyrimidine-2,4-diamine] cannot be ordered by EC50: < 10 µM for the first, 0.59 µM for the second.

`Cc1cc2cc(Nc3ccnc(NCc4ccc5[nH]ncc5c4)n3)ccc2[nH]1` [Example 65, N^2-(1H-indazol-5-ylmethyl)-N^4-(2-methyl-1H-indol-5-yl)pyrimidine-2,4-diamine] and `Cc1nc2cc(Nc3ccnc(NCc4ccc5[nH]ccc5c4)n3)ccc2[nH]1` [Example 96, N^2-(1H-indol-5-ylmethyl)-N^4-(2-methyl-1H-benzo[d]imidazol-5-yl)pyrimidine-2,4-diamine] are within 1.5-fold of each other in EC50: 0.92 µM for the first, 0.68 µM for the second.

Going from `c1cc(Nc2ccc3[nH]cnc3c2)nc(NCc2ccc3[nH]ccc3c2)n1` [Example 95, N^2-(1H-indol-5-ylmethyl)-N^4-(1H-benzo[d]imidazol-5-yl)pyrimidine-2,4-diamine] to `c1cc(Nc2ccc3[nH]ccc3c2)nc(NCc2ccc3[nH]ccc3c2)n1` [Example 82, N^2-(1H-indol-5-ylmethyl)-N^4-(1H-indol-5-yl)pyrimidine-2,4-diamine], the EC50 falls from 0.9 µM to 0.49 µM (1.8-fold). The second is the more potent here.

First: COc1ccc2[nH]cc(CCNc3nc(Cc4ccccc4)cc(NCc4ccc5[nH]ccc5c4)n3)c2c1 [Example 85, N^4-(1H-indol-5-ylmethyl)-6-benzyl-N^2-[2-(5-methoxy-1H-indol-3-yl)ethyl]pyrimidine-2,4-diamine]
Second: FC(F)(F)c1cc(NCc2ccc3[nH]ccc3c2)nc(NCCc2c[nH]c3ccccc23)n1 [Example 35, N^2-(2-(1H-indol-3-yl)ethyl)-N^4-(1H-indol-5-ylmethyl)-6-trifluoromethylpyrimidine-2,4-diamine]
The EC50 of the first is lower: < 10 µM for the first, 10.1 µM for the second.

`CNC(=O)c1cc(Oc2ccc(NC(=O)Nc3ccc(Cl)c(C(F)(F)F)c3)cc2)ccn1` [Ref. 1, sorafenib, reference compound] and `COC(=O)c1cc(Nc2nccc(NCc3ccc4[nH]ccc4c3)n2)c2cc[nH]c2c1` [Example 81, Methyl 4-[4-(1H-indol-5-ylmethylamino)pyrimidin-2-ylamino]-1H-indole-6-carboxylate] cannot be ordered by EC50: 8.3 µM for the first, < 10 µM for the second.

First: CCN(CC)CCNC(=O)c1c(C)[nH]c(/C=C2\C(=O)Nc3ccc(F)cc32)c1C [Ref. 2, sunitinib, reference compound]
Second: c1cc(Nc2ccnc(NCc3ccc4[nH]ncc4c3)n2)c2cc[nH]c2c1 [Example 29, N^2-(1H-indazol-5-ylmethyl)-N^4-(1H-indol-4-yl)pyrimidine-2,4-diamine]
The EC50 of the first is 5.1-fold higher: 14.1 µM for the first, 2.78 µM for the second.
